Results as given in ChEMBL document CHEMBL3727365, “Compounds that modulate intracellular calcium” (2012).

What follows are molecules tested on Jurkat (assay: Inhibition of PHA/TPA-induced IL2 release in human Jurkat T cells preincubated for 10 mins followed by PHA/TPA stimulation measured after […] by ELISA).
Format: functional, cell-based

Row | IC50 [nM] | SMILES
1 | 50 | Cn1nc(-c2ccccc2F)cc1-c1ccc(C(=O)Nc2ncccc2F)s1
2 | < 50 | Cn1nc(C(F)(F)F)cc1-c1cnc(NC(=O)c2ccccc2F)s1
3 | < 50 | Cn1nc(-c2ccco2)cc1-c1ccc(C(=O)Nc2c(F)cncc2F)s1
4 | < 50 | Cn1nc(-c2nccs2)cc1-c1ccc(C(=O)Nc2ncc(Cl)cc2F)s1
5 | 50 | Cc1nc2cc(Cl)c(-c3cnc(NC(=O)c4ccccc4Cl)s3)cc2o1
6 | 50 | Cn1nc(-c2ccccc2)cc1-c1ccc(C(=O)Nc2ccncc2F)s1
7 | < 50 | Cn1nc(-c2ccccc2F)cc1-c1ccc(C(=O)Nc2ccncc2F)s1
8 | > 100 | Cn1nc(-c2ccccc2)cc1-c1ccc(C(=O)Nc2ccccc2F)s1
9 | < 50 | Cn1nc(-c2ccccc2F)cc1-c1ccc(C(=O)Nc2ncc(Cl)cc2F)s1
10 | < 50 | Cn1nc(-c2ccccc2F)cc1-c1ccc(C(=O)Nc2c(F)cncc2F)s1
11 | 50 | Cn1nc(-c2ccco2)cc1-c1ccc(C(=O)Nc2ccccc2Cl)s1
12 | > 100 | Cn1nc(-c2ccco2)cc1-c1ccc(C(=O)Nc2ncccc2F)s1
13 | < 50 | Cn1nc(-c2nccs2)cc1-c1ccc(C(=O)Nc2ccncc2F)s1
14 | < 50 | Cn1nc(-c2ccco2)cc1-c1ccc(C(=O)Nc2ccncc2F)s1
15 | < 50 | Cn1nc(-c2ccco2)cc1-c1ccc(C(=O)Nc2ncc(Cl)cc2F)s1
16 | < 50 | Cn1nc(-c2nccs2)cc1-c1ccc(C(=O)Nc2ccccc2F)s1

The molecules below were run against ORAI1/STIM1 (Homo sapiens) (UniProt Q96D31+Q13586) (assay: Inhibition of recombinant human STIM1/Orai1 expressed in HEK293 cells assessed as inhibition of peak basal signal after 30 mins by fluo4-AM dye-based FLIPR assay).
Chain of ORAI1/STIM1 (Homo sapiens) (Q13586 23-685 partner limits assumed): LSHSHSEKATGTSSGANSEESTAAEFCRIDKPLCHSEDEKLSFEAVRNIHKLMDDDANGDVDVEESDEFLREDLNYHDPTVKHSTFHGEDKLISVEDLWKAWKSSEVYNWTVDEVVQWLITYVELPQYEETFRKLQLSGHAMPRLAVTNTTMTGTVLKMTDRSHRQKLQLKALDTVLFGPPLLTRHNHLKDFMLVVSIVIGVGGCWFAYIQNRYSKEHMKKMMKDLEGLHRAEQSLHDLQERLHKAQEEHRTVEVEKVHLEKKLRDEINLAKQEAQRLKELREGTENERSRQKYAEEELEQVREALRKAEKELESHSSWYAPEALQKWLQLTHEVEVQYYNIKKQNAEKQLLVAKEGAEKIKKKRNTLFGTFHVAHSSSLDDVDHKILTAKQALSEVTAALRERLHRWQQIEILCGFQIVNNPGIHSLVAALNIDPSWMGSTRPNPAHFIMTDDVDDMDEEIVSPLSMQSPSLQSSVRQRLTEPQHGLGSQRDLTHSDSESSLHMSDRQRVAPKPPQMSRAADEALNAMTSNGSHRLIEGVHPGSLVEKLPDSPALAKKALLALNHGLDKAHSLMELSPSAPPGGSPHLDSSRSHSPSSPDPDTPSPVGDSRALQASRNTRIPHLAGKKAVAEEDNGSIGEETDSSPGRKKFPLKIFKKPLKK
Chain of ORAI1/STIM1 (Homo sapiens) (Q96D31 whole entry): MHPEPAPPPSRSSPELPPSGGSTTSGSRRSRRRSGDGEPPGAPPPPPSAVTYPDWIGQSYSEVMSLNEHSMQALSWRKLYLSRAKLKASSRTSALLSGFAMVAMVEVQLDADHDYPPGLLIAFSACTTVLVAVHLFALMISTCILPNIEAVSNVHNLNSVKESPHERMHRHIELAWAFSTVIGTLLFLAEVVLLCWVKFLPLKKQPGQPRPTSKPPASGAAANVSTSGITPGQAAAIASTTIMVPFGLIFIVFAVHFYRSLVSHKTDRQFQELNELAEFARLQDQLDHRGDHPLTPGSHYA
Format: cell-based

Row | Efficacy [%] | SMILES
17 | < 50 | Cn1nc(C(F)(F)F)cc1-c1ccc(NC(=O)c2ccncc2F)s1
18 | < 50 | Cc1ccccc1C(=O)Nc1ncc(-c2cc(C(F)(F)F)nn2C)s1
